Laboratory results as given in patent US20200181117A1, “SUBSTITUTED 3-HETEROARYLOXY-1H-PYRAZOLES AND SALTS THEREOF AND THEIR USE AS HERBICIDAL ACTIVE SUBSTANCES” (BAYER CROPSCIENCE AKTIENGESELLSCHAFT, priority 2017, published 2020).

Legend:
Type in all cases: in vivo
[1] = tested on: Polygonum convolvulus; test: Post-emergence herbicidal action; conditions: 1280 g/ha, rated visually after about 3 weeks vs untreated controls
Outline: (§1)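 Visual rating against untreated plants, about 3 weeks post-treatment, on a 0-100% scale where 100% means plant death. Treatment: 1280 g/ha of WP/EC preparations with 0.5% additive in 600 l/ha water, sprayed on one-leaf-stage weeds grown in greenhouse sandy loam.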

[2] = tested on: Setaria viridis; test: Post-emergence herbicidal action; conditions: 1280 g/ha, rated visually after about 3 weeks vs untreated controls
Outline: as §1

[3] = tested on: Stellaria media; test: Post-emergence herbicidal action; conditions: 1280 g/ha, rated visually after about 3 weeks vs untreated controls
Outline: as §1

[4] = tested on: Viola tricolor; test: Post-emergence herbicidal action; conditions: 1280 g/ha, rated visually after about 3 weeks vs untreated controls
Outline: as §1

[5] = tested on: Abutilon theophrasti; test: Pre-emergence herbicidal action; conditions: 1280 g/ha, scored visually after about 3 weeks vs untreated controls
Outline: (§2)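 Seeds were sown in pots and covered with soil; compounds formulated as WP or EC were sprayed onto the soil surface as aqueous suspension or emulsion with 0.5% additive at 600 l/ha water, 1280 g/ha. Greenhouse growth; visual % activity versus untreated controls after about 3 weeks (100% = plants dead).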

[6] = tested on: Alopecurus myosuroides; test: Pre-emergence herbicidal action; conditions: 1280 g/ha, scored visually after about 3 weeks vs untreated controls
Outline: as §2

[7] = tested on: Amaranthus retroflexus; test: Pre-emergence herbicidal action; conditions: 1280 g/ha, scored visually after about 3 weeks vs untreated controls
Outline: as §2

[8] = tested on: Echinochloa crus-galli; test: Pre-emergence herbicidal action; conditions: 1280 g/ha, scored visually after about 3 weeks vs untreated controls
Outline: as §2

[9] = tested on: Lolium rigidum; test: Pre-emergence herbicidal action; conditions: 1280 g/ha, scored visually after about 3 weeks vs untreated controls
Outline: as §2

[10] = tested on: Matricaria inodora; test: Pre-emergence herbicidal action; conditions: 1280 g/ha, scored visually after about 3 weeks vs untreated controls
Outline: as §2

[11] = tested on: Pharbitis purpurea; test: Pre-emergence herbicidal action; conditions: 1280 g/ha, scored visually after about 3 weeks vs untreated controls
Outline: as §2

[12] = tested on: Polygonum convolvulus; test: Pre-emergence herbicidal action; conditions: 1280 g/ha, scored visually after about 3 weeks vs untreated controls
Outline: as §2

[13] = tested on: Setaria viridis; test: Pre-emergence herbicidal action; conditions: 1280 g/ha, scored visually after about 3 weeks vs untreated controls
Outline: as §2

[14] = tested on: Stellaria media; test: Pre-emergence herbicidal action; conditions: 1280 g/ha, scored visually after about 3 weeks vs untreated controls
Outline: as §2

[15] = tested on: Veronica persica; test: Pre-emergence herbicidal action; conditions: 1280 g/ha, scored visually after about 3 weeks vs untreated controls
Outline: as §2

[16] = tested on: Viola tricolor; test: Pre-emergence herbicidal action; conditions: 1280 g/ha, scored visually after about 3 weeks vs untreated controls
Outline: as §2

[17] = tested on: Abutilon theophrasti; test: Post-emergence herbicidal action; conditions: 1280 g/ha, rated visually after about 3 weeks vs untreated controls
Outline: as §1

[18] = tested on: Amaranthus retroflexus; test: Post-emergence herbicidal action; conditions: 1280 g/ha, rated visually after about 3 weeks vs untreated controls
Outline: as §1

[19] = tested on: Avena fatua; test: Pre-emergence herbicidal action; conditions: 1280 g/ha, scored visually after about 3 weeks vs untreated controls
Outline: as §2

[20] = tested on: Hordeum murinum; test: Pre-emergence herbicidal action; conditions: 1280 g/ha, scored visually after about 3 weeks vs untreated controls
Outline: as §2

[21] = tested on: Alopecurus myosuroides; test: Post-emergence herbicidal action; conditions: 1280 g/ha, rated visually after about 3 weeks vs untreated controls
Outline: as §1

[22] = tested on: Echinochloa crus-galli; test: Post-emergence herbicidal action; conditions: 1280 g/ha, rated visually after about 3 weeks vs untreated controls
Outline: as §1

[23] = tested on: Pharbitis purpurea; test: Post-emergence herbicidal action; conditions: 1280 g/ha, rated visually after about 3 weeks vs untreated controls
Outline: as §1

[24] = tested on: Veronica persica; test: Post-emergence herbicidal action; conditions: 1280 g/ha, rated visually after about 3 weeks vs untreated controls
Outline: as §1

## CCn1cc(Sc2ccc(F)cc2)c(Oc2ncc(F)cn2)n1 [Example I-211]
[1]
  herbicidal activity on Polygonum convolvulus: 100%
[2]
  herbicidal activity on Setaria viridis: 90%
[3]
  herbicidal activity on Stellaria media: 100%
[4]
  herbicidal activity on Viola tricolor: 80%
[5]
  herbicidal activity on Abutilon theophrasti: 90%
[6]
  herbicidal activity on Alopecurus myosuroides: 90%
[7]
  herbicidal activity on Amaranthus retroflexus: 100%
[8]
  herbicidal activity on Echinochloa crus-galli: 90%
[9]
  herbicidal activity on Lolium rigidum: 100%
[10]
  herbicidal activity on Matricaria inodora: 90%
[11]
  herbicidal activity on Pharbitis purpurea: 80%
[12]
  herbicidal activity on Polygonum convolvulus: 90%
[13]
  herbicidal activity on Setaria viridis: 100%
[14]
  herbicidal activity on Stellaria media: 100%
[15]
  herbicidal activity on Veronica persica: 100%
[16]
  herbicidal activity on Viola tricolor: 100%

## COc1cnc(Oc2nn(C)c(C)c2Sc2ccc(F)cc2F)nc1 [Example I-205]
[17]
  herbicidal activity on Abutilon theophrasti: 90%
[18]
  herbicidal activity on Amaranthus retroflexus: 90%
[2]
  herbicidal activity on Setaria viridis: 80%
[4]
  herbicidal activity on Viola tricolor: 90%
[5]
  herbicidal activity on Abutilon theophrasti: 100%
[6]
  herbicidal activity on Alopecurus myosuroides: 100%
[7]
  herbicidal activity on Amaranthus retroflexus: 100%
[19]
  herbicidal activity on Avena fatua: 100%
[8]
  herbicidal activity on Echinochloa crus-galli: 100%
[20]
  herbicidal activity on Hordeum murinum: 100%
[9]
  herbicidal activity on Lolium rigidum: 100%
[10]
  herbicidal activity on Matricaria inodora: 100%
[11]
  herbicidal activity on Pharbitis purpurea: 100%
[12]
  herbicidal activity on Polygonum convolvulus: 100%
[13]
  herbicidal activity on Setaria viridis: 100%
[14]
  herbicidal activity on Stellaria media: 100%
[15]
  herbicidal activity on Veronica persica: 100%
[16]
  herbicidal activity on Viola tricolor: 100%

## CCn1cc(Sc2ccc(F)cc2)c(Oc2ncccn2)n1 [Example I-038]
[4]
  herbicidal activity on Viola tricolor: 90%
[5]
  herbicidal activity on Abutilon theophrasti: 80%
[6]
  herbicidal activity on Alopecurus myosuroides: 80%
[7]
  herbicidal activity on Amaranthus retroflexus: 100%
[8]
  herbicidal activity on Echinochloa crus-galli: 80%
[10]
  herbicidal activity on Matricaria inodora: 90%
[11]
  herbicidal activity on Pharbitis purpurea: 80%
[12]
  herbicidal activity on Polygonum convolvulus: 80%
[13]
  herbicidal activity on Setaria viridis: 100%
[14]
  herbicidal activity on Stellaria media: 100%
[16]
  herbicidal activity on Viola tricolor: 100%

## Fc1ccc(Sc2c(Oc3ncccn3)nn3c2CCOCC3)c(F)c1 [Example I-163]
[17]
  herbicidal activity on Abutilon theophrasti: 90%
[21]
  herbicidal activity on Alopecurus myosuroides: 90%
[22]
  herbicidal activity on Echinochloa crus-galli: 90%
[23]
  herbicidal activity on Pharbitis purpurea: 90%
[1]
  herbicidal activity on Polygonum convolvulus: 100%
[2]
  herbicidal activity on Setaria viridis: 90%
[3]
  herbicidal activity on Stellaria media: 80%
[24]
  herbicidal activity on Veronica persica: 80%
[4]
  herbicidal activity on Viola tricolor: 90%
[5]
  herbicidal activity on Abutilon theophrasti: 100%
[6]
  herbicidal activity on Alopecurus myosuroides: 90%
[7]
  herbicidal activity on Amaranthus retroflexus: 90%
[8]
  herbicidal activity on Echinochloa crus-galli: 100%
[20]
  herbicidal activity on Hordeum murinum: 90%
[10]
  herbicidal activity on Matricaria inodora: 100%
[12]
  herbicidal activity on Polygonum convolvulus: 100%
[13]
  herbicidal activity on Setaria viridis: 100%
[14]
  herbicidal activity on Stellaria media: 90%
[15]
  herbicidal activity on Veronica persica: 90%
[16]
  herbicidal activity on Viola tricolor: 100%

## Fc1ccc(Sc2c(Oc3ncc(F)cn3)nn3c2CCOCC3)cc1 [Example I-122]
[17]
  herbicidal activity on Abutilon theophrasti: 100%
[21]
  herbicidal activity on Alopecurus myosuroides: 90%
[22]
  herbicidal activity on Echinochloa crus-galli: 90%
[23]
  herbicidal activity on Pharbitis purpurea: 90%
[1]
  herbicidal activity on Polygonum convolvulus: 100%
[2]
  herbicidal activity on Setaria viridis: 100%
[3]
  herbicidal activity on Stellaria media: 90%
[24]
  herbicidal activity on Veronica persica: 90%
[4]
  herbicidal activity on Viola tricolor: 90%
[5]
  herbicidal activity on Abutilon theophrasti: 100%
[6]
  herbicidal activity on Alopecurus myosuroides: 100%
[7]
  herbicidal activity on Amaranthus retroflexus: 100%
[19]
  herbicidal activity on Avena fatua: 80%
[8]
  herbicidal activity on Echinochloa crus-galli: 100%
[20]
  herbicidal activity on Hordeum murinum: 90%
[10]
  herbicidal activity on Matricaria inodora: 100%
[12]
  herbicidal activity on Polygonum convolvulus: 100%
[13]
  herbicidal activity on Setaria viridis: 100%
[14]
  herbicidal activity on Stellaria media: 100%
[15]
  herbicidal activity on Veronica persica: 100%
[16]
  herbicidal activity on Viola tricolor: 100%

## CCc1c(Sc2ccc(F)cc2)c(Oc2ncc(F)cn2)nn1C [Example I-183]
[17]
  herbicidal activity on Abutilon theophrasti: 90%
[21]
  herbicidal activity on Alopecurus myosuroides: 90%
[18]
  herbicidal activity on Amaranthus retroflexus: 100%
[22]
  herbicidal activity on Echinochloa crus-galli: 90%
[23]
  herbicidal activity on Pharbitis purpurea: 100%
[1]
  herbicidal activity on Polygonum convolvulus: 90%
[2]
  herbicidal activity on Setaria viridis: 100%
[3]
  herbicidal activity on Stellaria media: 90%
[24]
  herbicidal activity on Veronica persica: 90%
[4]
  herbicidal activity on Viola tricolor: 100%
[5]
  herbicidal activity on Abutilon theophrasti: 100%
[6]
  herbicidal activity on Alopecurus myosuroides: 100%
[7]
  herbicidal activity on Amaranthus retroflexus: 100%
[8]
  herbicidal activity on Echinochloa crus-galli: 100%
[20]
  herbicidal activity on Hordeum murinum: 100%
[9]
  herbicidal activity on Lolium rigidum: 100%
[10]
  herbicidal activity on Matricaria inodora: 100%
[12]
  herbicidal activity on Polygonum convolvulus: 100%
[13]
  herbicidal activity on Setaria viridis: 100%
[14]
  herbicidal activity on Stellaria media: 100%
[16]
  herbicidal activity on Viola tricolor: 100%
